Experimental data taken from patent US10196386B2, “Compounds having muscarinic receptor antagonist and beta2 adrenergic receptor agonist activity” (priority 2016, dated 2019).

Assays:
Human β2 adrenoceptor = molecular target: T1, Human β2 adrenoceptor (Homo sapiens, UniProt P07550); experiment: β2 adrenoceptor radioligand binding assay
T1 construct: purchased Perkin Elmer
Experimental: β2 Adrenoceptor Radioligand Binding Assay
Human β2 adrenoceptor membranes (7.5 ug/well) from Perkin Elmer were incubated with 0.3 nM 125-I Cyanopindolol with or without test compounds, or a saturating concentration of s-propranolol (2 μM) for the determination of non-specific binding. The assay was carried out in 96-well polypropylene plates in a volume of 200 ul. The assay buffer used was 25 mM HEPES, 0.5% BSA (w/v), 1 mM EDTA, 0.02% ascorbic acid (v/v), (pH 7.4). The final assay concentration of DMSO was 0.5% (v/v). The plates were sealed and incubated for 1 h at room temperature on an orbital shaker (slow speed). Membranes were harvested onto 96-well unifilter GF/C filter plates pre-treated with 0.5% polyethyleneimine (v/v), using a filter manifold, washed six times with 200 ul of wash buffer containing 10 mM HEPES and 500 mM NaCl. The plates were dried before addition of 50 μl of microscint-0, sealed then read in a Trilux Microbeta scintillation counter. IC50 values are determined from competition curves using a non-linear curve fitting program. Ki values were calculated from IC50 values by the Cheng and Prusoff equation.

Human M3 receptor = molecular target: T2, Human M3 receptor (Homo sapiens, UniProt P20309); experiment: biochemical; format: binding; settings: read-out: M3 Range
T2 construct: purchased Perkin Elmer
T2 sequence (P20309 whole entry): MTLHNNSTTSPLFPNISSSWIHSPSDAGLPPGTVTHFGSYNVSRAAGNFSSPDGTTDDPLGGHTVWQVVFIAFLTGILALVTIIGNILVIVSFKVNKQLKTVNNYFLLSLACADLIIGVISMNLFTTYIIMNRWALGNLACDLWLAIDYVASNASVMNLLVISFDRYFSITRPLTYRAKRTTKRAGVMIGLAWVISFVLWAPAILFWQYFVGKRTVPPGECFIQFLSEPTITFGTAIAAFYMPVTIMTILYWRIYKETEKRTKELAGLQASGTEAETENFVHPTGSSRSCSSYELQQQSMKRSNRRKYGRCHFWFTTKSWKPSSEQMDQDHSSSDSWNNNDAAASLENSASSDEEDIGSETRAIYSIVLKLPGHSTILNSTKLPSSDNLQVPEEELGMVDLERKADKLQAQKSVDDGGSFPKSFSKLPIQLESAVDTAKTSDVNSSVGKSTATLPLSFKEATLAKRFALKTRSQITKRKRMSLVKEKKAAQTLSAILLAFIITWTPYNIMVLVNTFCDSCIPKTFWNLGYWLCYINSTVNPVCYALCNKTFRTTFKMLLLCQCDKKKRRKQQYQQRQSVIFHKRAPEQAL

T1 sequence (P07550 whole entry): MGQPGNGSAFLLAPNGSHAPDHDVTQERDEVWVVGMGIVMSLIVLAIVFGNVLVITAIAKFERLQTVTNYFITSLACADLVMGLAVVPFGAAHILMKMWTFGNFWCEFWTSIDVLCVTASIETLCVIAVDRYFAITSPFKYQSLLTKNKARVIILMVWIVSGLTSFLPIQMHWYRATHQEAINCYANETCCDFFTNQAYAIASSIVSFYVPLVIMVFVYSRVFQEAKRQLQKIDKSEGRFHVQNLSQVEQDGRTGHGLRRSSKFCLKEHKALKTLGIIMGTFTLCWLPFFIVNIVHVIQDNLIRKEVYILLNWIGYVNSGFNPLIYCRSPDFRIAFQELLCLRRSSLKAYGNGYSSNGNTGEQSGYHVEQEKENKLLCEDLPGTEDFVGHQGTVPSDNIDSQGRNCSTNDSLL

SMILES | IC50 (Human β2 adrenoceptor) | IC50 (Human M3 receptor)
O=C(NCc1ccc(-c2cccc([C@](O)(C(=O)OCC3CCN(Cc4ccccc4)CC3)c3ccccc3)c2)s1)c1cccc(CNC[C@H](O)c2ccc(O)c3[nH]c(=O)ccc23)c1 [Compound 1N, (1-Benzylpiperidin-4-yl)methyl (S)-2-hydroxy-2-(3-(5-((3-((((R)-2-hydroxy-2-(8-hydroxy-2-oxo-1,2-dihydroquinolin-5-yl)ethyl)amino)methyl)-benzamido)methyl)thiophen-2-yl)phenyl)-2-phenylacetate] | 0.3 to 3 nM | 0.3 to 3 nM
Cc1cc(C(=O)NCc2ccc(-c3cccc([C@](O)(C(=O)OCC4CCN(Cc5ccccc5)CC4)c4ccccc4)c3)s2)c(F)cc1CNC[C@H](O)c1ccc(O)c2[nH]c(=O)ccc12 [Compound 1O, (1-Benzylpiperidin-4-yl)methyl (S)-2-(3-(5-((2-fluoro-4-((((R)-2-hydroxy-2-(8-hydroxy-2-oxo-1,2-dihydroquinolin-5-yl)ethyl)amino)methyl)-5-methylbenzamido)methyl)thiophen-2-yl)phenyl)-2-hydroxy-2-phenylacetate] | < 0.3 nM | > 3 nM
O=C(Cc1ccc(CNC[C@H](O)c2ccc(O)c3[nH]c(=O)ccc23)cc1)NCc1ccc(-c2cccc([C@](O)(C(=O)OCC3CCN(Cc4ccccc4)CC3)c3ccccc3)c2)s1 [Compound 1P, (1-Benzylpiperidin-4-yl)methyl (S)-2-hydroxy-2-(3-(5-((2-(4-((((R)-2-hydroxy-2-(8-hydroxy-2-oxo-1,2-dihydroquinolin-5-yl)ethyl)amino)methyl)-phenyl)acetamido)methyl)thiophen-2-yl)phenyl)-2-phenylacetate] | 0.3 to 3 nM | 0.3 to 3 nM
O=C(NCc1ccc(-c2cccc([C@](O)(C(=O)OCC3CCN(Cc4ccccc4)CC3)c3ccccc3)c2)s1)c1ccc(CNC[C@H](O)c2ccc(O)c3[nH]c(=O)ccc23)cn1 [Compound 1Q, (1-Benzylpiperidin-4-yl)methyl (S)-2-hydroxy-2-(3-(5-((5-((((R)-2-hydroxy-2-(8-hydroxy-2-oxo-1,2-dihydroquinolin-5-yl)ethyl)amino)methyl)-picolinamido)methyl)thiophen-2-yl)phenyl)-2-phenylacetate] | < 0.3 nM | 0.3 to 3 nM
O=C(NCc1ccc(-c2cccc([C@](O)(C(=O)OCC3CCN(Cc4ccccc4)CC3)c3ccccc3)c2)s1)c1ccc(CNC[C@H](O)c2ccc(O)c3[nH]c(=O)ccc23)c(Cl)c1 [Compound 1R, (1-Benzylpiperidin-4-yl)methyl (S)-2-(3-(5-((3-chloro-4-((((R)-2-hydroxy-2-(8-hydroxy-2-oxo-1,2-dihydroquinolin-5-yl)ethyl)amino)methyl)-benzamido)methyl)thiophen-2-yl)phenyl)-2-hydroxy-2-phenylacetate] | < 0.3 nM | > 3 nM
Cc1cc(C(=O)NCc2ccc(-c3cccc([C@](O)(C(=O)OCC4CCN(Cc5ccccc5)CC4)c4ccccc4)c3)s2)ccc1CNC[C@H](O)c1ccc(O)c2[nH]c(=O)ccc12 [Compound 1S, (1-Benzylpiperidin-4-yl)methyl (S)-2-hydroxy-2-(3-(5-((4-((((R)-2-hydroxy-2-(8-hydroxy-2-oxo-1,2-dihydroquinolin-5-yl)ethyl)amino)methyl)-3-methylbenzamido)methyl)thiophen-2-yl)phenyl)-2-phenylacetate] | < 0.3 nM | 0.3 to 3 nM
O=C(NCc1ccc(-c2cccc([C@](O)(C(=O)OCC3CCN(Cc4ccccc4)CC3)c3ccccc3)c2)s1)c1ccc(CNC[C@H](O)c2ccc(O)c3[nH]c(=O)ccc23)s1 [Compound 1T, (1-Benzylpiperidin-4-yl)methyl (S)-2-hydroxy-2-(3-(5-((5-((((R)-2-hydroxy-2-(8-hydroxy-2-oxo-1,2-dihydroquinolin-5-yl)ethyl)amino)methyl)thiophene-2-carboxamido)methyl)thiophen-2-yl)phenyl)-2-phenylacetate] | 0.3 to 3 nM | 0.3 to 3 nM
